In patent publication US20260138959A1, “QUINAZOLINE DERIVATIVE COMPOUND AND USE THEREOF” (VORONOI INC., priority 2021, published 2026):

Tests used:
[1] = system: Ba/F3-TEL-PDGFβ(WT); assay: Proliferation inhibitory activity on Ba/F3 cell (CellTiter-Glo, 72 hours), PDGFR-β; assay type: cell-based; settings: Mus musculus, BaF3, read-out: Ba/F3 (nM) Tel-PDGFRβ (GI50 class)
Experimental: Ba/F3-TEL-PDGFRα(WT), Ba/F3-TEL-PDGFβ(WT), Ba/F3-c-KIT(D816V) (Kyinno, #KC-0138), c-KIT V560G/D816V, c-KIT D814Y were seeded at 3×10^3/100 μl/well in a clear bottom white 96-well plate. A culture solution containing compounds of 12 concentrations (0.00001-2 mM) serially diluted in 3 folds and the DMSO control group was added at 0.5 μl/well each to a final concentration of 0.00005-10 μM, and then incubated in a CO2 incubator at 37° C. for 72 hours. After 72 hours, the plate treated with the compound was taken out, CellTiter-Glo® Assay (Promega) solution was treated with 100 μl/well, followed by mixing well. After mixing well for about 10 minutes at room temperature, […] was measured using a microplate reader. The data were presented as percentages in proportion to treated cells based on the vehicle, GI50 (nM) values were calculated using GraphPad Prism 8.3.0 (GraphPad software Inc., San Diego).
The inhibitory activities of Ba/F3 expressing PDGFR-α, PDGFR-β, c-KIT(D816V), c-KIT V560G/D816V, and c-KIT D814Y measured as described above were measured and shown in Table 7 below (A: GI50≤200 nM; B: 200 nM<GI50≤500 nM; C: GI50>500 nM).

[2] = molecular target: T1, human PDGFR-β(wt) (Homo sapiens, UniProt P09619); assay: Enzyme inhibitory activity, ADP-Glo kinase assay, PDGFR-β(wt); assay type: biochemical; settings: read-out: PDGFR-β (IC50 class)
T1 construct: purchased Signalchem P13-11G
T1 sequence (P09619 33-1106): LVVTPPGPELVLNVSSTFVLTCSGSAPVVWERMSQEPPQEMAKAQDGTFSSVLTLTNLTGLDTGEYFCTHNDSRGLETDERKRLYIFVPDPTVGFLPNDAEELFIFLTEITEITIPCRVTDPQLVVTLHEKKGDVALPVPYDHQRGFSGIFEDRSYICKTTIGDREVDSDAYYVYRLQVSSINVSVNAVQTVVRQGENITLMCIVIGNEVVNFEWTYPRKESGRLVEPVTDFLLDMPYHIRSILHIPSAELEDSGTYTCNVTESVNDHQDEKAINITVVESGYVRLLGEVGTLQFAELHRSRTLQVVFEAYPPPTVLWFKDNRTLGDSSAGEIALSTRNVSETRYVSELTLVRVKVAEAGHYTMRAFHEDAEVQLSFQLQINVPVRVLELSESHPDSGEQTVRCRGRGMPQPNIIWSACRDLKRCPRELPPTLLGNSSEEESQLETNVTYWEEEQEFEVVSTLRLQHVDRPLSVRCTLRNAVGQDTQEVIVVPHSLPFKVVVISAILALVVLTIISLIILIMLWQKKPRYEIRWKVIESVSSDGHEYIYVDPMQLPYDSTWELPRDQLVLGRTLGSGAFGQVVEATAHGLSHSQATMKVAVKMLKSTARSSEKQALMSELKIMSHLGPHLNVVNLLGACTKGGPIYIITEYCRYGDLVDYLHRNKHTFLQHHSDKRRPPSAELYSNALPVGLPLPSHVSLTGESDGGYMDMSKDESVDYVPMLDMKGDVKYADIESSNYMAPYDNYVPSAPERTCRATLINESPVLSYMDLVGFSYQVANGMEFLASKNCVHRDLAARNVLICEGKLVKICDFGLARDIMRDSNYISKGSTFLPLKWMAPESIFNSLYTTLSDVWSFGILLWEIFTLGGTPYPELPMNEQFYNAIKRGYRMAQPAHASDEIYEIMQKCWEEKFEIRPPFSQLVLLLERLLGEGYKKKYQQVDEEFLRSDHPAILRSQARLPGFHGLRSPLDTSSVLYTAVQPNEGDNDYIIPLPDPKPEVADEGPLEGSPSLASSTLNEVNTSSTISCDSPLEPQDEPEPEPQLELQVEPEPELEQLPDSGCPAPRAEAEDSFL
Experimental: In order to evaluate the inhibitory activity of the compounds synthesized according to the above examples on PDGFR-α(wt), PDGFR-β(wt), c-KIT(wt), and c-KIT(D816V) kinases, the following method was performed. The compounds of examples were reacted with purified human PDGFR-α(wt) (Signalchem #P12-18G) enzyme, human PDGFR-β(wt) (Signalchem #P13-11G) enzyme, human c-KIT(wt) (Signalchem #K06-11BG) enzyme, human c-KIT(D816V) (Signalchem #C06-12LG) enzyme, and the enzyme inhibitory abilities were evaluated by the following method.
The reaction buffer was used as a composition of 40 mM Tris-HCl pH7.4, 20 mM MgCl2, 0.5 mg/ml BSA, 50 μM DTT, and the reactions of all the tests were carried out on the reaction buffer. The compound was diluted in 12 steps using a serial dilution method from a 10 mM DMSO stock, and the enzyme activity was measured at a final compound concentration of 10˜0.00005645 μM. During the test, the enzyme activity was confirmed using in vitro ADP-Glo™ kinase assay (Promega) after reacting with the proper concentration of human PDGFR-α(wt) enzyme, human PDGFR-β(wt), human c-KIT(wt) enzyme, and human c-KIT(D816V) enzyme with purified ATP and enzyme substrate at 25° C. for 1˜2 hours. At a ratio of 2:2:1, an enzyme-active reaction solution, an ADP-Glo reaction solution, and an enzyme-active detection solution were reacted to measure the inhibition of the enzyme's activity with luminoscence. Based on the […] of the enzyme activity of the solvent control that was not treated with the compound, the degree of enzyme activity inhibition was calculated according to the treatment concentration of each compound, and the concentration of each compound that inhibits 50% of enzyme activity was determined as IC50 (nM) value and the value was obtained by using GraphPad Prism 8.3.0 (GraphPad software Inc., San Diego) software. (A: IC50≤50 nM; B: 50 nM<IC50≤100 nM; C: 100 nM<IC50≤500 nM; D: IC50>500 nM).

[3] = system: c-KIT V560G/D816V; assay: Proliferation inhibitory activity on Ba/F3 cell (CellTiter-Glo, 72 hours), c-KIT V560G/D816V; assay type: cell-based; settings: Mus musculus, BaF3, c-KIT V560G/D816V cells, read-out: Cell (nM) c-KIT V560G/D816V (GI50 class)
Procedure, shortened: (§1)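 Cells seeded (3×10^3/well), then twelve 3-fold compound concentrations added to 0.00005-10 μM final alongside DMSO control. Plates incubated 72 h at 37 °C. CellTiter-Glo reagent mixed in for ~10 min at room temperature before reading; GI50 fitted from vehicle-normalised data.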

[4] = system: Ba/F3-c-KIT(D816V); assay: Proliferation inhibitory activity on Ba/F3 cell (CellTiter-Glo, 72 hours), c-KIT(D816V); assay type: cell-based; settings: Mus musculus, BaF3, read-out: Ba/F3 (nM) c-KIT (D816V) (GI50 class)
Procedure, shortened: as §1

| GI50 [1] [nM] | IC50 [2] [nM] | GI50 [3] [nM] | Structure (SMILES) | GI50 [4] [nM] |
| --- | --- | --- | --- | --- |
| ≤ 200 | ≤ 50 |  | COc1cc2c(-c3ccc(NC(=O)C(C)c4ccco4)cc3)ncnc2cc1OCCCN1CCN(C)CC1 (stereo not shown) [Example 48, 2-(furan-2-yl)-N-(4-(6-methoxy-7-(3-(4-methylpiperazin-1-yl)propoxy)quinazolin-4-yl)phenyl)propanamide] |  |
| ≤ 200 | ≤ 50 |  | COc1cc2c(-c3ccc(NC(=O)Cc4ccc(C(F)(F)F)cc4)c(C)c3)ncnc2cc1OCCCN1CCN(C)CC1 [Example 49, N-(4-(6-methoxy-7-(3-(4-methylpiperazin-1-yl)propoxy)quinazolin-4-yl)-2-methylphenyl)-2-(4-(trifluoromethyl)phenyl)acetamide] |  |
| ≤ 200 | ≤ 50 |  | COc1cc2c(-c3ccc(NC(=O)Cc4ccc(C(F)(F)F)cc4)c(F)c3)ncnc2cc1OCCCN1CCN(C)CC1 [Example 50, N-(2-fluoro-4-(6-methoxy-7-(3-(4-methylpiperazin-1-yl)propoxy)quinazolin-4-yl)phenyl)-2-(4-(trifluoromethyl)phenyl)acetamide] |  |
| ≤ 200 | ≤ 50 |  | COc1cc2c(-c3ccc(NC(=O)Cc4cscn4)cc3)ncnc2cc1OCCCN1CCN(C)CC1 [Example 51, N-(4-(6-methoxy-7-(3-(4-methylpiperazin-1-yl)propoxy)quinazolin-4-yl)phenyl)-2-(thiazole-4-yl)acetamide] |  |
| ≤ 200 |  |  | COCCN1CCC(COc2cc3ncnc(-c4ccc(NC(=O)Cc5ccc6c(c5)OCO6)c(F)c4)c3cc2OC)CC1 [Example 52, 2-(benzo[d][1,3]dioxol-5-yl)-N-(2-fluoro-4-(6-methoxy-7-((1-(2-methoxyethyl)piperidin-4-yl)methoxy)quinazolin-4-yl)phenyl)acetamide] |  |
| ≤ 200 |  |  | COCCN1CCC(COc2cc3ncnc(-c4ccc(NC(=O)Cc5ccc6c(c5)OCO6)c(C)c4)c3cc2OC)CC1 [Example 53, 2-(benzo[d][1,3]dioxol-5-yl)-N-(4-(6-methoxy-7-((1-(2-methoxyethyl)piperidin-4-yl)methoxy)quinazolin-4-yl)-2-methylphenyl)acetamide] |  |
| ≤ 200 | ≤ 50 |  | COc1cc2c(-c3ccc(NC(=O)Cc4ccc5c(c4)OCO5)cc3)ncnc2cc1OCCCN1CCN(C)CC1 [Example 54, 2-(benzo[d][1,3]dioxol-5-yl)-N-(4-(6-methoxy-7-(3-(4-methylpiperazin-1-yl)propoxy)quinazolin-4-yl)phenyl)acetamide] |  |
| ≤ 200 | ≤ 50 | > 500 | COc1cc2c(-c3ccc(NC(=O)Cc4ccc5c(c4)OCO5)cc3)ncnc2cc1OCC1CCNCC1 [Example 97, 2-(benzo[d][1,3]dioxol-5-yl)-N-(4-(6-methoxy-7-(piperidin-4-ylmethoxy)quinazolin-4-yl)phenyl)acetamide] |  |
| ≤ 200 | ≤ 50 | ≤ 200 | COCCN1CCC(COc2cc3ncnc(-c4ccc(NC(=O)Cc5ccc6c(c5)OCO6)cc4)c3cc2OC)CC1 [Example 98, 2-(benzo[d][1,3]dioxol-5-yl)-N-(4-(6-methoxy-7-((1-(2-methoxyethyl)piperidin-4-yl)methoxy)quinazolin-4-yl)phenyl)acetamide] |  |
| ≤ 200 | ≤ 50 | ≤ 200 | CCN1CCC(COc2cc3ncnc(-c4ccc(NC(=O)Cc5ccc6c(c5)OCO6)cc4)c3cc2OC)CC1 [Example 99, 2-(benzo[d][1,3]dioxol-5-yl)-N-(4-(7-((1-ethylpiperidin-4-yl)methoxy)-6-methoxyquinazolin-4-yl)phenyl)acetamide] |  |
| ≤ 200 | ≤ 50 | ≤ 200 | COc1ccc(CC(=O)Nc2ccc(-c3ncnc4cc(OCC5CCN(C)CC5)c(OC)cc34)cc2)cn1 [Example 100, N-(4-(6-methoxy-7-((1-methylpiperidin-4-yl)methoxy)quinazolin-4-yl)phenyl)-2-(6-methoxypyridin-3-yl)acetamide] |  |
| ≤ 200 | ≤ 50 | ≤ 200 | CCN1CCCC(COc2cc3ncnc(-c4ccc(NC(=O)Cc5ccc(OC)nc5)cc4)c3cc2OC)C1 (stereo not shown) [Example 109, N-(4-(7-((1-ethylpiperidin-3-yl)methoxy)-6-methoxyquinazolin-4-yl)phenyl)-2-(6-methoxypyridin-3-yl)acetamide] |  |
| ≤ 200 | ≤ 50 | ≤ 200 | CCN1CCCC(COc2cc3ncnc(-c4ccc(NC(=O)Cc5ccc(C(F)(F)F)nc5)cc4)c3cc2OC)C1 (stereo not shown) [Example 110, N-(4-(7-((1-ethylpiperidin-3-yl)methoxy)-6-methoxyquinazolin-4-yl)phenyl)-2-(6-(trifluoromethyl)pyridin-3-yl)acetamide] |  |
| ≤ 200 |  | ≤ 200 | COCCOc1cc2ncnc(-c3ccc(NC(=O)Cc4ccc(C(F)(F)F)nc4)cc3)c2cc1OC [Example 118, N-(4-(6-methoxy-7-(2-methoxyethoxy)quinazolin-4-yl)phenyl)-2-(6-(trifluoromethyl)pyridin-3-yl)acetamide] |  |
| ≤ 200 | ≤ 50 |  | COc1cc2c(-c3ccc(NC(=O)Cc4ccc5c(c4)OCO5)c(F)c3)ncnc2cc1OCCCN1CCN(C)CC1 [Example 163, 2-(benzo[d][1,3]dioxol-5-yl)-N-(2-fluoro-4-(6-methoxy-7-(3-(4-methylpiperazin-1-yl)propoxy)quinazolin-4-yl)phenyl)acetamide] |  |
| ≤ 200 | ≤ 50 |  | COc1cc2c(-c3ccc(NC(=O)Cc4ccc5c(c4)OCO5)c(C)c3)ncnc2cc1OCCCN1CCN(C)CC1 [Example 164] |  |
| ≤ 200 | ≤ 50 |  | COc1cc2c(-c3ccc(C(=O)NCc4ccc(C(F)(F)F)cc4)cc3)ncnc2cc1OCCCN1CCN(C)CC1 [Example 165, 4-(6-methoxy-7-(3-(4-methylpiperazin-1-yl)propoxy)quinazolin-4-yl)-N-(4-(trifluoromethyl)benzyl)benzamide] |  |
| ≤ 200 | ≤ 50 |  | COc1cc2c(-c3ccc(C(=O)NCc4ccc5c(c4)OCO5)cc3)ncnc2cc1OCCCN1CCN(C)CC1 [Example 166, N-(benzo[d][1,3]dioxol-5-ylmethyl)-4-(6-methoxy-7-(3-(4-methylpiperazin-1-yl)propoxy)quinazolin-4-yl)benzamide] |  |
| ≤ 200 | ≤ 50 |  | COc1cc2c(-c3ccc(C(=O)NCc4ccc(F)c(F)c4)cc3)ncnc2cc1OCCCN1CCN(C)CC1 [Example 167, N-(3,4-difluorobenzyl)-4-(6-methoxy-7-(3-(4-methylpiperazin-1-yl)propoxy)quinazolin-4-yl)benzamide] |  |
| ≤ 200 |  |  | COc1cc2c(-c3ccc(NC(=O)Nc4cccc(C(F)(F)F)c4)cc3)ncnc2cc1OCCCN1CCN(C)CC1 [Example 169] |  |

| Structure (SMILES) | GI50 [1] [nM] | IC50 [2] [nM] | GI50 [3] [nM] | GI50 [4] [nM] |
| --- | --- | --- | --- | --- |
| COc1cc2ncnc(-c3ccc(NC(=O)Cc4ccc(C(F)(F)F)cc4)cc3)c2cc1OC(=O)N1CCN(C)CC1 [Example 132, 7-methoxy-4-(4-(2-(4-(trifluoromethyl)phenyl)acetamido)phenyl)quinazolin-6-yl 4-methylpiperazin-1-carboxylate] | ≤ 200 |  | > 500 | ≤ 200 |
